{
  "source": "patent US20120302629A1",
  "about": "“BIOMARKERS FOR GOSSYPOL CHEMOTHERAPY AND METHODS OF TREATING DISEASE” (THE REGENTS OF THE UNIVERSITY OF MICHIGAN, priority 2009, published 2012)",
  "key": {"2LMP cells [1]": {"system": "2LMP cells", "experiment": "WST cell growth assay", "assay_type": "cell-based, human", "settings": "Homo sapiens, 96 h; 4 days", "procedure": "(§1) Cell Growth, Cell Death, and Apoptosis: Cell growth inhibition by (−)-gossypol was determined in a water-soluble tetrazolium (WST)-based assay, as described previously (Shangary et al., Proc. Natl. Acad. Sci. USA 105:3933 (2008)). Cell viability was determined by trypan blue due exclusion as described (Shangary et al., Proc. Natl. Acad. Sci. USA 105:3933 (2008)). Experiments were done in triplicate. To examine apoptosis, cells were stained with Annexin V and PI and analyzed by flow cytometery using an Annexin V-FITC staining kit (Roche Applied Science, Indianapolis, Ind.) according to manufacturer's instructions. Briefly, cells were treated and collected by centrifugation, washed with PBS once and then stained with annexinV-FITC and PI for 15 min at room temperature in the dark. Stained cells were analyzed in a FACS caliber flow cytometer. AnnexinV positive cells are considered as apoptotic cells."}, "PC-3 cells [2]": {"system": "PC-3 cells", "experiment": "WST cell growth assay", "assay_type": "cell-based, human", "settings": "Homo sapiens, PC-3, 96 h; 4 days", "procedure": "as §1"}, "2LMP cells [3]": {"system": "2LMP cells", "experiment": "Cell death by trypan blue dye exclusion", "assay_type": "cell-based, human", "settings": "for cell death: 48 h", "procedure": "as §1"}, "PC-3 cells [4]": {"system": "PC-3 cells", "experiment": "Cell death by trypan blue dye exclusion", "assay_type": "cell-based, human", "settings": "Mcl-1 knock-down", "procedure": "as §1"}, "MEF Bax/Bak KO cells": {"system": "MEF Bax/Bak KO cells", "experiment": "Apoptosis (Annexin V/PI flow cytometry) in MEF cells", "assay_type": "cell-based", "settings": "all the concentrations tested", "procedure": "as §1"}, "[5]": {"system": "Noxa, Puma and Mcl-1 RNAs in 2LMP, PC-3, MDA-MB-436 and DU145 cells", "experiment": "Taqman real-time PCR with actinomycin D cotreatment", "assay_type": "cell-based, human", "settings": "cotreatment with (−)-gossypol 10 μm", "procedure": "Real-Time PCR: Total RNA was extracted by RNA miniprep kit (Sigma) from cells treated with or without of (−)-gossypol. cDNA was synthesized from 2 μg of RNA using cDNA reverse transcription kits (Applied Biosystems). Next, Taqman gene expression assays were performed using Noxa (Hs00560402_ml), Puma (Hs00248075_ml), Mcl-1 (Hs00172036_ml) gene specific primers/probe sets for real-time PCR in a ABI7900HT PCR machine. GAPDH (Hs99999905_ml) was used for normalization. Relative quantitation of mRNA was calculated by comparative cycle threshold (Ct) method."}, "[6]": {"system": "Bcl-2 family proteins in 2LMP cells", "experiment": "Western blot of whole cell lysates", "assay_type": "cell-based, human", "settings": "cotreatment with (−)-gossypol (FIG. 26)", "procedure": "(§2) Western blot assay: Proteins were harvested in RIPA buffer, then electrophoresed on 4-20% gradient SDS-PAGE gels (Invitrogen, Grand Island, N.Y.) and transferred to PVDF membranes. The membranes were blocked in 5% milk and then incubated with specific primary antibody, followed by secondary antibody. The signals were visualized with the chemiluminescent HRP antibody detection reagent (Deville Scientific, Metuchen, N.J.)."}, "[7]": {"system": "Bcl-2 family proteins in PC-3 cells", "experiment": "Western blot of whole cell lysates", "assay_type": "cell-based, human", "settings": "cotreatment with (−)-gossypol (FIG. 26)", "procedure": "as §2"}},
  "note": "Numbered stars: 1 amine (or outer) side, 2 acyl side, 3 side chain; on linkers, the order of the positions; unused ones are H or OH. Bridge positions count the residues as written; N and C are the ends. Square brackets hold non-standard residues; d marks the D form. Peptide text beside a SMILES is read from it. I, II: the chains in the order shown. Actinocin(9to1) = Cc1c2oc3c(C)ccc(C(=O)[*:1])c3nc-2c(C(=O)[*:2])c(N)c1=O; NMeV = CN[C@H](C(=O)O)C(C)C; Sar = CNCC(=O)O",
  "data": [
    {"smiles": "CN(C)CC[C@H](CSc1ccccc1)Nc1ccc(S(=O)(=O)NC(=O)c2ccc(N3CCN(Cc4ccccc4-c4ccc(Cl)cc4)CC3)cc2)cc1[N+](=O)[O-]", "note": "[ABT-737, reference compound]", "values": [
      {"measurement": "IC50", "setting": "2LMP cells [1]", "result": "> 10", "unit": "µM"},
      {"measurement": "IC50", "setting": "PC-3 cells [2]", "result": "> 10", "unit": "µM"},
      {"measurement": "cell death", "setting": "2LMP cells [3]; 1 μM", "result": "no effect"},
      {"measurement": "cell death", "setting": "2LMP cells [3]; 2.5 μM", "result": "no effect"},
      {"measurement": "cell death induction upon knock-down of Mcl-1", "setting": "2LMP cells [3]; Mcl-1 knock-down", "result": "sensitizes"},
      {"measurement": "cell death induction upon knock-down of Mcl-1", "setting": "PC-3 cells [4]", "result": "sensitizes"}
    ]},
    {"smiles": "COc1cc([C@@H]2c3cc4c(cc3[C@@H](O[C@@H]3O[C@@H]5CO[C@@H](C)O[C@H]5[C@H](O)[C@H]3O)[C@H]3COC(=O)[C@H]23)OCO4)cc(OC)c1O", "note": "[VP-16, 4′-demethylepipodophyllotoxin 9-[4,6-0-(R)-ethylidene-(beta)-D-glucopyranoside], reference compound]", "values": [
      {"measurement": "induction of cell death in the MEF Bax/Bak double knock-out", "setting": "MEF Bax/Bak KO cells", "result": "blocked"}
    ]},
    {"smiles": "Cc1c2oc3c(C)ccc(C(=O)N[C@@H]4C(=O)N[C@H](C(C)C)C(=O)N5CCC[C@H]5C(=O)N(C)CC(=O)N(C)[C@@H](C(C)C)C(=O)O[C@@H]4C)c3nc-2c(C(=O)N[C@@H]2C(=O)N[C@H](C(C)C)C(=O)N3CCC[C@H]3C(=O)N(C)CC(=O)N(C)[C@@H](C(C)C)C(=O)O[C@@H]2C)c(N)c1=O", "note": "[actinomycin D, reference compound] (I: T[dV]P[Sar][NMeV] / II: T[dV]P[Sar][NMeV]; ester I:1-I:C, II:1-II:C; linker I:N-II:N via Actinocin(9to1))", "values": [
      {"measurement": "upregulation of Noxa, Puma and Mcl-1 RNAs by (−)-gossypol under cotreatment", "setting": "[5]", "result": "completely blocks"},
      {"measurement": "(−)-gossypol-upregulated Noxa and Puma proteins under cotreatment", "setting": "[6]", "result": "significantly blocked"},
      {"measurement": "(−)-gossypol-upregulated Noxa and Puma proteins under cotreatment", "setting": "[7]", "result": "significantly blocked"}
    ]},
    {"smiles": "CC(C)C[C@H](NC(=O)[C@H](Cc1ccccc1)NC(=O)c1cnccn1)B(O)O", "note": "[bortezomib, reference compound]", "values": [
      {"measurement": "cell death upon knock-down of c-Myc", "setting": "2LMP cells [3]; c-Myc siRNA, 24 h", "result": "blocked cell death"}
    ]}
  ]
}
